From ChEMBL document CHEMBL1201862, “PubChem BioAssay data set” (2004)
Calls of active or inactive are those of the source.

What was measured:
[1] = target: T1, Small ubiquitin-related modifier 1 (Homo sapiens, UniProt P63165); experiment: inhibitors of SUMO1 partner interactions, dose response, biochemical, FRET (AID 624383); format: functional; conditions: read-out: IC50_Mean
[2] = target: T1, Small ubiquitin-related modifier 1; experiment: inhibitors of SUMO1 peptide binding, dose response, biochemical, fluorescence polarization, uHTS hits (AID 624382); format: functional; conditions: read-out: IC50_Mean
Cytochrome P450 1A2 = target: T2, Cytochrome P450 1A2 (Homo sapiens, UniProt P05177);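 note: PubChem cytochrome P450 panel assay, CYP1A2 panel member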
T2 sequence (P05177 whole entry): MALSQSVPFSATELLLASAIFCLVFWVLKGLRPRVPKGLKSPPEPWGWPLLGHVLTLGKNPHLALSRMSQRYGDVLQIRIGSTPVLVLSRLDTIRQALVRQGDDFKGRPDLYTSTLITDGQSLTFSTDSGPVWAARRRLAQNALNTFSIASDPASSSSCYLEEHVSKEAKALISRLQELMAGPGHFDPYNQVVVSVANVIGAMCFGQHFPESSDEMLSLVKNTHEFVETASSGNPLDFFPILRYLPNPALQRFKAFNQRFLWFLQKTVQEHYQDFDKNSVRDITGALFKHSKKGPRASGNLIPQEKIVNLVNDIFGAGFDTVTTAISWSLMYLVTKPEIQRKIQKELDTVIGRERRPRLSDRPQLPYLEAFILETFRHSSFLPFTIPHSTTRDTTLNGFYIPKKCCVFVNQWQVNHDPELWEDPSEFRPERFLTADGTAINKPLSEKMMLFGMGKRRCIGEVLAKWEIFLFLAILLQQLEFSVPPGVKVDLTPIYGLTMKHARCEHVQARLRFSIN

Cytochrome P450 2C9 = Cytochrome P450 2C9 (Homo sapiens, UniProt P11712)
Cytochrome P450 2D6 = Cytochrome P450 2D6 (Homo sapiens, UniProt P10635);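 note: CYP2D6 member of a cytochrome P450 panel assay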
Cytochrome P450 3A4 = Cytochrome P450 3A4 (Homo sapiens, UniProt P08684);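 note: CYP3A4 tested as one member of a cytochrome P450 panel screen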
Beta-galactosidase = Beta-galactosidase (Escherichia coli, UniProt Q8VNN2); experiment: PubChem AID 485352; format: functional
[3] = target: T3, Type-1 angiotensin II receptor (Homo sapiens, UniProt P30556); experiment: AT1 receptor antagonists, dose response, selectivity assay for APJ receptor antagonist project, cell-based, uHTS hits (AID 463214); format: functional;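 note: antagonist potency against angiotensin II stimulated AT1 response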
T3 sequence (P30556 whole entry): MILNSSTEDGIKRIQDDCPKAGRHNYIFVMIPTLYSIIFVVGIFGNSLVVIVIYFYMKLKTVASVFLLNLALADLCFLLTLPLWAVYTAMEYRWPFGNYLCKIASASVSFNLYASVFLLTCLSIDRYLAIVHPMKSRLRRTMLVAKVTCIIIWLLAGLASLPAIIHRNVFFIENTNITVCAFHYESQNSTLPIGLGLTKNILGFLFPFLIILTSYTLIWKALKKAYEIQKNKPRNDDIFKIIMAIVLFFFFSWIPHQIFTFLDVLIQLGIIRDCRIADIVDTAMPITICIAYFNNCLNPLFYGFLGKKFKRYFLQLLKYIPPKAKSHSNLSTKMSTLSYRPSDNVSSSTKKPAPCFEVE

Melanocortin receptor 4 = Melanocortin receptor 4 (Homo sapiens, UniProt P32245); experiment: MC4R antagonist potency on cAMP, dose response, cell-based, TR-FRET, biased antagonists (AID 602298); format: functional;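 note: antagonist potency against agonist-stimulated cAMP production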
[4] = target: T4, Probable nicotinate-nucleotide adenylyltransferase (Staphylococcus aureus (strain N315), UniProt P65502); format: functional, Staphylococcus aureus subsp. aureus N315;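 for IC50 Mean: confirmatory dose-response retesting of NadD inhibitor hits first found in an ultra-high-throughput screen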
Nonstructural protein 1 = Nonstructural protein 1 (Influenza A virus, UniProt Q194T2); format: functional, Influenza A virus (A/California/07/2009(H1N1))
[5] = target: Heat shock protein HSP 90-alpha (Homo sapiens, UniProt P07900); format: functional, organism-based
[6] = HeLa cell cytotoxicity, dose response, cytotoxicity control for MgcRacGAP inhibitor project (AID 624300); format: functional
[7] = target: T4, Probable nicotinate-nucleotide adenylyltransferase; format: functional, Staphylococcus aureus subsp. aureus N315; conditions: read-out: IC50_Mean
Vero = experiment: cells; format: functional; conditions: Chlorocebus sabaeus
[8] = nonselective inhibitors of cellular cAMP signaling, dose response, counter-screen for MC4R biased antagonist project, cell-based, TR-FRET cAMP detection (AID 602305); format: functional;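 note: U2OS cells stimulated with forskolin near its EC80 as the cAMP inducer; potency is for inhibition of forskolin-stimulated cAMP signaling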
[9] = target: T5, Rac GTPase-activating protein 1 (Homo sapiens, UniProt Q9H0H5); experiment: MgcRacGAP GTPase-activating activity inhibitors, confirmation, biochemical, ADP Hunter fluorescence, primary and confirmatory (AID 624330); format: functional
T5 sequence (Q9H0H5 whole entry): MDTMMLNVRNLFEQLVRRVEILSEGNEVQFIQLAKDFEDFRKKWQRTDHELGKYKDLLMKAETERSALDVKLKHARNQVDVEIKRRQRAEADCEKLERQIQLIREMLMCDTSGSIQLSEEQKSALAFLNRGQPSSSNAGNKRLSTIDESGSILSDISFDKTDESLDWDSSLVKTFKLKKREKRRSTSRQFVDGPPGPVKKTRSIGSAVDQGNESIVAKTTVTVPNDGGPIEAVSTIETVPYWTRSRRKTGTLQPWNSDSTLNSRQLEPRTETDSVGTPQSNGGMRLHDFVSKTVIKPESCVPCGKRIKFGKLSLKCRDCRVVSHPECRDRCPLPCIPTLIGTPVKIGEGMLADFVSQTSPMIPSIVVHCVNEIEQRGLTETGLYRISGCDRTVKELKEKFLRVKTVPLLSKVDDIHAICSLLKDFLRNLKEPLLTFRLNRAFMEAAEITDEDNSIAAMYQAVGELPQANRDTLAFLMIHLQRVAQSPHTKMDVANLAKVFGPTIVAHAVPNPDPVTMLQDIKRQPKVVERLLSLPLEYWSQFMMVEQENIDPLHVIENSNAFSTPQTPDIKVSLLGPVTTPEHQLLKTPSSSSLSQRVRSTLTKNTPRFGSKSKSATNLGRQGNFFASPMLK

[10] = inhibitors of HIV Env-driven cell fusion, dose response, cherry-pick (AID 652057); format: functional, cell-based
INS1 = experiment: beta cell apoptosis inhibitors, cytokine rescue, dose response, luminescence, retest (AID 449756); format: functional, cell-based; conditions: Rattus norvegicus;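 note: cell death triggered by IL-1 beta plus TNF-alpha plus IFN-gamma mixture; protective hits raise ATP signal compared with cytokine alone wells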
[11] = ZM109 Env clade C HIV-1 fusion inhibitors, dose response, HeLa effector, CEM target cells, luciferase, cherry-pick (AID 652058); format: functional, cell-based
[12] = off-target signal loss in HeLa-CEM21 co-culture – HeLa F-luc CTL cells, cherry-picked, counter-screen for HIV-1 Env fusion inhibitor project, dose response (AID 652040); format: functional, cell-based;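 note: potency for signal decrease marking cytotoxic or nonspecific inhibition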
[13] = inhibitors of clade B AD8 Env fusion, dose response, cell-based, cherry-pick (AID 652062); format: functional;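 note: luciferase signal from cell-cell fusion driven by HIV-1 clade B AD8 Env; potency is for inhibitors of fusion seen as a drop in luminescence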
[14] = CEM21 lymphoblast cell cytotoxicity, dose response, cytotoxicity control for viral fusion inhibitor project, CellTiter-Glo luminescence, cherry-picked (AID 652042); format: functional, cell-based;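 note: potency for signal decrease meaning cytotoxicity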
[15] = HepG2 cell cytotoxicity, dose response, cytotoxicity control for Shn3 inhibitor project, CellTiter-Glo, cherry-picked (AID 624134); format: functional, cell-based
[16] = Shn3 3'UTR reporter inhibitors, dose response, cell-based, Clone20 osteoblasts, firefly luciferase, cherry-picked (AID 624132); format: functional;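 note: firefly luciferase luminescence from reporter carrying the Shn3 3'UTR in osteoblasts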
[17] = control 3'UTR Renilla luciferase suppression, dose response, counter-screen for Shn3 inhibitor project, cell-based, Clone20-Shn3RL, cherry-picked (AID 624133); format: functional
P388 = experiment: cells; format: functional; conditions: Mus musculus
P388/ADR = experiment: cells; format: functional; conditions: Mus musculus
SN12K1 = experiment: cells; format: functional; conditions: Homo sapiens

T1 sequence (P63165 whole entry): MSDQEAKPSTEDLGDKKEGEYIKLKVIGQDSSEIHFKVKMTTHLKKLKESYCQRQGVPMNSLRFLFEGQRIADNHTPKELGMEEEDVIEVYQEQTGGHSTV
T4 sequence (P65502 whole entry): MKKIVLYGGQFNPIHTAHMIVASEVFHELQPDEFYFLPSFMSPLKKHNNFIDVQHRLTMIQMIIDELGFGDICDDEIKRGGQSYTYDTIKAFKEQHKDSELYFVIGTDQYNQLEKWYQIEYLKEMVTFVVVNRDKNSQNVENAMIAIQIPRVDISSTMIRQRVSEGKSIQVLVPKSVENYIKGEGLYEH
Chain of Cytochrome P450 2C9 (P11712 whole entry): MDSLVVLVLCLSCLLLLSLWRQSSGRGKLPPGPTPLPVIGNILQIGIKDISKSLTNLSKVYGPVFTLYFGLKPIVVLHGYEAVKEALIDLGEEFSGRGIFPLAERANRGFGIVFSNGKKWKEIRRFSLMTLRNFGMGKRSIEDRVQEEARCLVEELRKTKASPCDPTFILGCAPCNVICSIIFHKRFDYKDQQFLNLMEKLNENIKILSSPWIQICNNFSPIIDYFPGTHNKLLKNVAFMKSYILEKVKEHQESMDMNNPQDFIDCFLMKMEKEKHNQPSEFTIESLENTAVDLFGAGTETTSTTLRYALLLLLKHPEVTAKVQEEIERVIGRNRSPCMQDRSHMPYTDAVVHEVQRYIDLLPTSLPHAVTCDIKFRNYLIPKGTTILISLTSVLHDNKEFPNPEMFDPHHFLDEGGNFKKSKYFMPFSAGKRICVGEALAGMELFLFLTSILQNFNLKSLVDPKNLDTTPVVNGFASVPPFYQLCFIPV
Chain of Cytochrome P450 2D6 (P10635 whole entry): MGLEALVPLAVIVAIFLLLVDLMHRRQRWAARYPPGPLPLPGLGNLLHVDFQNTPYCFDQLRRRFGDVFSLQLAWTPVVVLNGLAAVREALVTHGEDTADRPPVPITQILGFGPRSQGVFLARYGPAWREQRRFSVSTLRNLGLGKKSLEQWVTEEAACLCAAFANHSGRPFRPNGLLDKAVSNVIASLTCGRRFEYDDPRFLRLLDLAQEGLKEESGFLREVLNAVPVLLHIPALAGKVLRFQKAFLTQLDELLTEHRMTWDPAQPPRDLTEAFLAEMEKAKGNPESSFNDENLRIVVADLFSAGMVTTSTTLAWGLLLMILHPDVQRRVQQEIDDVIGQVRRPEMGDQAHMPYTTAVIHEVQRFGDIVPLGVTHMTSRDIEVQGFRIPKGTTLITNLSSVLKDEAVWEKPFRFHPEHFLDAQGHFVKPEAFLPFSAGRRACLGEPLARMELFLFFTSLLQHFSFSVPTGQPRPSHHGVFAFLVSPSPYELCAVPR
Chain of Melanocortin receptor 4 (P32245 whole entry): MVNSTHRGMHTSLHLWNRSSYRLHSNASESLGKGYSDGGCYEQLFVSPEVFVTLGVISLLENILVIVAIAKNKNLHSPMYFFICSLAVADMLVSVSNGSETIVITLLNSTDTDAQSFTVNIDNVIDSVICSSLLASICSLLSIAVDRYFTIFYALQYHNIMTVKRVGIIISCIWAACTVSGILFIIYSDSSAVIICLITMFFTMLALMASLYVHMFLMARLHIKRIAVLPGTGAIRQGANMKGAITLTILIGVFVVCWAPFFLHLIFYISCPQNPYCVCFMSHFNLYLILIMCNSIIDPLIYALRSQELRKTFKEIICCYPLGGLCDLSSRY
Chain of Cytochrome P450 3A4 (P08684 whole entry): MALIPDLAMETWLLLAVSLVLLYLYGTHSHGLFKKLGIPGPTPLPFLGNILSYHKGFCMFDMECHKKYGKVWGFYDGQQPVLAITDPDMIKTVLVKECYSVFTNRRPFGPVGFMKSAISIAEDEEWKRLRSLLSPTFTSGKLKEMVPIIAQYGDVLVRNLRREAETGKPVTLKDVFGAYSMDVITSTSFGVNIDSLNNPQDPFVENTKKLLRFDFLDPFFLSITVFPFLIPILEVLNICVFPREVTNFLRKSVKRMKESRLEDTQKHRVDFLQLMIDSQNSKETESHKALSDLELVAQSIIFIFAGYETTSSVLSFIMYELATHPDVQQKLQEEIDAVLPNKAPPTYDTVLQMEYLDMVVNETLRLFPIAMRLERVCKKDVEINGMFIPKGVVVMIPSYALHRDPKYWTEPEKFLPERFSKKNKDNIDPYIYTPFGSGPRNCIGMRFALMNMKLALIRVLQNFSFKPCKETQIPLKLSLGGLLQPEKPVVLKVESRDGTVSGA
Chain of Beta-galactosidase (Q8VNN2 whole entry): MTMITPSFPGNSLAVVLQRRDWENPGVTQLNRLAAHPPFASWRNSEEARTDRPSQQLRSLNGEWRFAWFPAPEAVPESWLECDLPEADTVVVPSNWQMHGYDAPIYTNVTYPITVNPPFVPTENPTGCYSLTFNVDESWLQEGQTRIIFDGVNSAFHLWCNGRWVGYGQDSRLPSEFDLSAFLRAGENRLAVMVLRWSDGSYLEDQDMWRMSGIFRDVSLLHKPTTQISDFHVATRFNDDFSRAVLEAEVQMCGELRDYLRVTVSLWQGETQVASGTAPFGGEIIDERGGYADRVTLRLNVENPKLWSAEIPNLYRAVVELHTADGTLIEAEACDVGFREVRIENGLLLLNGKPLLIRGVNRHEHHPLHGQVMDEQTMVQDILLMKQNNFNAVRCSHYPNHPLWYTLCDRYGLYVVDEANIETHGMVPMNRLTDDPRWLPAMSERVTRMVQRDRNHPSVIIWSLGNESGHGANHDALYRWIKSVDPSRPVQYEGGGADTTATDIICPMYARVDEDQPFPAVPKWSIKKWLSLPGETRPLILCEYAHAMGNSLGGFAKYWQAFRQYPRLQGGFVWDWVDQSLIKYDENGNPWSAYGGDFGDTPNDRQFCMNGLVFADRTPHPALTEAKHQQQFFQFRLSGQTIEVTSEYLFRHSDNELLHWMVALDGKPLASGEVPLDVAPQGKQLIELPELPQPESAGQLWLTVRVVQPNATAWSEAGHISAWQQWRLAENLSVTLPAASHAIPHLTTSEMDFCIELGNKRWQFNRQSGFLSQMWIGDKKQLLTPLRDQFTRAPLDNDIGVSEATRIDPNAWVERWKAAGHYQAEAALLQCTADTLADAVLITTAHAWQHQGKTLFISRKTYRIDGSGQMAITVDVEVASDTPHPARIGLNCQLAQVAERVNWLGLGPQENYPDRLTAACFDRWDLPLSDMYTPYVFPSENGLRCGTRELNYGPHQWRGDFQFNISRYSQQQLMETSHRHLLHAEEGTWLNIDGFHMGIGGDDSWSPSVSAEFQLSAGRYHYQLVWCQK
Chain of Nonstructural protein 1 (Q194T2 whole entry): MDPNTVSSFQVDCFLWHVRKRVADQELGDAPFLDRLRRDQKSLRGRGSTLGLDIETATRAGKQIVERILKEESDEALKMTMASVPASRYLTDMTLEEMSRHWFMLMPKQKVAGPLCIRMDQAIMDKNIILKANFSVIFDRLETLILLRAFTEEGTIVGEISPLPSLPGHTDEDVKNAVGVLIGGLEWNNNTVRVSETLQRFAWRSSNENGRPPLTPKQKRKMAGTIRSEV

COC(=O)c1ccc(OCC(=O)Nc2nn(-c3ccccc3)nc2C(N)=O)cc1
IC50 [1]: 3.99 µM (active)
IC50 [2]: > 66.6 µM (inactive)

N#Cc1cccc(NC(=O)N2CC3(CCN(C(=O)Oc4ccccc4)CC3)C2)c1
AC50 (Cytochrome P450 1A2): 15.8 µM (inconclusive)
AC50 (Cytochrome P450 2C9): 15.8 µM (inconclusive)
AC50 (Cytochrome P450 2D6): 39.8 µM (inconclusive)
AC50 (Cytochrome P450 3A4): inconclusive

COc1cc(NS(=O)(=O)c2ccc(NC(=S)NC(=O)C3CCCC3)cc2)nc(OC)n1
EC50 (Beta-galactosidase): > 40 µM (inactive)
IC50 [3]: > 40 µM (not active)

CCOc1ccc2c(ccc(/C=C/c3cc(C)c4cccnc4c3O)[n+]2C)c1
IC50 (Melanocortin receptor 4): > 2.39 µM (active)
IC50 [4]: 8.71 µM (active)
IC50 (Nonstructural protein 1): 0.676 µM (active)
AC50 [5]: 0.276 µM (active)
CC50 [6]: 95.9 µM (active)
IC50 [7]: 11.7 µM (active)
CC50 (Vero): 13.1 µM (active)
IC50 [8]: > 64.5 µM (inactive)
IC50 [9]: 34.5 µM (active)

CC(C)(C)n1ncc2c(=O)n(Cc3cccc(Cn4cnc5c(cnn5C(C)(C)C)c4=O)c3F)cnc21
AC50 [10]: 17.9 µM (active)
AC50 (INS1): 3.27 µM (active)
AC50 [11]: 1.74 µM (active)
AC50 [12]: 35.4 µM (active)
AC50 [13]: 6.31 µM (active)
AC50 [14]: 35.2 µM (active)
AC50 [15]: 19.4 µM (active)
AC50 [16]: 1.09 µM (active)
AC50 [17]: 0.84 µM (active)

O=NN1C(c2ccccc2)CNC(=O)CC1c1ccccc1 (stereo unspecified)
GI50 (P388): 21.8 µM (inactive)
GI50 (P388/ADR): 22.8 µM (inactive)
GI50 (SN12K1): 39.2 µM (inactive)

CO[C@H](CN(C)S(=O)(=O)c1ccc(Cl)cc1)[C@@H](C)CN([C@@H](C)CO)S(=O)(=O)c1cccc(Cl)c1
AC50 [10]: 2.93 µM (active)
AC50 [11]: 5.98 µM (active)
AC50 [13]: 25.1 µM (active)
AC50 [14]: 39.7 µM (active)

O=C(CSc1nnc(SCc2ccccc2)s1)N/N=C/c1c[nH]c2ccccc12
IC50 [1]: 10.4 µM (active)
IC50 [2]: > 66.6 µM (inactive)

CC(=O)O[C@H]1C(=O)O[C@@H]2C[C@H]3C(C)=CC(=O)[C@@H](O)[C@]3(C)[C@H]3[C@@]4(O)OC[C@]32[C@@H]1[C@@H](C)[C@H]4O
GI50 (P388): 0.133 µM (active)
GI50 (P388/ADR): 1.66 µM (inactive)
GI50 (SN12K1): 0.0223 µM (active)

CS(=O)(=O)OCCCCOS(C)(=O)=O [BUSULFAN]
GI50 (P388): 117 µM (inactive)
GI50 (P388/ADR): 109 µM (inactive)
GI50 (SN12K1): 215 µM (inactive)
